Some results are limits rather than exact numbers.

Experiment [1] has as its target T1, HCV NS3/4A protease complex, H77 strain (1a genotype) (Hepatitis C virus genotype 1a, UniProt P27958, C1454S/C1711G).
T1 construct: DNA encoding the recombinant HCV NS3/4A protease complex (amino acids 1027 to 1711) for these strains; His tag (inferred from pET21b vector and Ni-NTA purification); made in house; host or cells: Escherichia coli BL21 (DE3)
In words: FRET peptide assay, HCV NS3/4A protease complex, H77 strain. In kind it is biochemical. The text has this:
HCV NS3 protease complexes, derived from the BMS strain, H77 strain or J4L6S strain, were generated, as described below. These purified recombinant proteins were generated for use in a homogeneous assay (see below) to provide an indication of how effective compounds of the present disclosure would be in inhibiting HCV NS3 proteolytic activity.
Serum from an HCV-infected patient was obtained from Dr. T. Wright, San Francisco Hospital. An engineered full-length cDNA (compliment deoxyribonucleic acid) template of the HCV genome (BMS strain) was constructed from DNA fragments obtained by reverse transcription-PCR (RT-PCR) of serum RNA (ribonucleic acid) and using primers selected on the basis of homology between other genotype 1a strains. From the determination of the entire genome sequence, a genotype 1a was assigned to the HCV isolate according to the classification of Simmonds et al. (See P Simmonds, K A Rose, S Graham, S W Chan, F McOmish, B C Dow, E A Follett, P L Yap and H Marsden, J. Clin. Microbiol., 31(6), 1493-1503 (1993)). […]

The target of experiment [2] is porcine pancreatic elastase (PPE) (Sus scrofa, UniProt P00772). The experiment can be described thus: Specificity assay, porcine pancreatic elastase. In kind it is biochemical. The following applies: read-out: PPE activity in the specificity assays. The protocol: The specificities of compounds of the present disclosure were determined against a variety of serine proteases: human neutrophil elastase (HNE), porcine pancreatic elastase (PPE) and human pancreatic chymotrypsin and one cysteine protease: human liver cathepsin B. In all cases a 96-well plate format protocol using a fluorometric Amino-Methyl-Coumarin (AMC) substrate specific for each enzyme was used as described previously (PCT Patent Application No. WO 00/09543) with some modifications to the serine protease assays. All enzymes were purchased from Sigma, EMDbiosciences while the substrates were from Bachem, Sigma and EMDbiosciences.
Compound concentrations varied from 100 to 0.4 μM depending on their potency. The enzyme assays were each initiated by addition of substrate to enzyme-inhibitor pre-incubated for 10 min at room temperature and hydrolysis to 15% conversion as measured on cytofluor. […]
The percentage of inhibition was calculated using the formula: […]

T1 sequence (P27958 1027-1711 C1454S/C1711G, one chain of several): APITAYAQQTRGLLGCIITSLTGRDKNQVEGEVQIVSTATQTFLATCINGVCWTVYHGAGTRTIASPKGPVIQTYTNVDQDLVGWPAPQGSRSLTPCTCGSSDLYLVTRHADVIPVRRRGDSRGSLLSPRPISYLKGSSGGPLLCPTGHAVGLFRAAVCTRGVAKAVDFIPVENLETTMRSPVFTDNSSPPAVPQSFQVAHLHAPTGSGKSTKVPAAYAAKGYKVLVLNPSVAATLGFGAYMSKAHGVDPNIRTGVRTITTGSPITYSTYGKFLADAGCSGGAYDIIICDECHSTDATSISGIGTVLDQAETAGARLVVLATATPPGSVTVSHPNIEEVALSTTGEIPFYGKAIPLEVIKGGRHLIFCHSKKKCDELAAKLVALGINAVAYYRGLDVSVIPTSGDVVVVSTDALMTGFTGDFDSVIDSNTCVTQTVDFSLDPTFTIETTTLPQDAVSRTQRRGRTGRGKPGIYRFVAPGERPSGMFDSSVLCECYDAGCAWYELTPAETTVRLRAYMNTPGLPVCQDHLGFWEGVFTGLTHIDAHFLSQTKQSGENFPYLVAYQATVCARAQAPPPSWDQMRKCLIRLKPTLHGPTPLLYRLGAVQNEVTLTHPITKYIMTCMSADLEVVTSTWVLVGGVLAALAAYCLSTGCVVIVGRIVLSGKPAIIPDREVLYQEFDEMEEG
porcine pancreatic elastase (PPE), sequence (P00772 27-266): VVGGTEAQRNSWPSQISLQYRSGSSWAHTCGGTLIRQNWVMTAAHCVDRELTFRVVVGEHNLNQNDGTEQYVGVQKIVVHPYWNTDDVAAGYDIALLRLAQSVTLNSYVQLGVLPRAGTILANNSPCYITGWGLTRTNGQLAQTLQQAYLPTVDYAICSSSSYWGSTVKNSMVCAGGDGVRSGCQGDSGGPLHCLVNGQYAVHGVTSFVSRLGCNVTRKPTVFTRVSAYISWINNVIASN

With `COc1ccc2c(O[C@@H]3C[C@H]4C(=O)N[C@]5(C(=O)NS(=O)(=O)C6CC6)C[C@H]5/C=C\CCCCC[C@H](Nc5ccc(OC)nc5)C(=O)N4C3)nccc2c1` (single isomer, unassigned) [Compound 1], the IC50 in experiment [1] was 1.9 nM; in experiment [2], above 25000 nM.

For the origin of these results see patent publication US20090285773A1, “Hepatitis C Virus Inhibitors” (Bristol-Myers Squibb Company, priority 2008, published 2009).
